Entries after “also recorded” stand apart in the source; their conditions may differ.
Experiments:
[1] = Cytotoxicity study (LDH activity in the medium) in peritoneal macrophages; assay type: cell-based; conditions: male, C57BL/6J, mouse, primary peritoneal macrophages; murine peritoneal macrophages, LDH
Experimental: (§1) Peritoneal macrophages (PM) were isolated from the peritoneal exudate of 30 male C57bl/6j mice. To accumulate PM, 1 ml of 3% peptone solution was injected intraperitoneally. After 3 days the mice were euthanized by cervical dislocation. Cells of peritoneal exudate were obtained by aseptically washing the abdominal cavity with 5 ml of sterile Hanks’s solution (+ 4-6 °C) without calcium and magnesium ions. The total number and viability of cells were assessed in a Goryaev counting chamber (Russia) with a 0.4% trypan blue staining (Sigma-Aldrich, USA). The cell concentration was adjusted to 1.0×10^6 cells/ml in DMEM (Gibco) supplemented with 2 mM L-glutamine (Gibco), 10% heat-inactivated fetal bovine serum (BioClot, Germany), 100 U/ml penicillin and […] streptomycin (Gibco) and plated 200 μl/well in 96-well transparent plates (SPL Life Sciences Co., Ltd., Korea). It was left for 2 h at 37°C in a humidified atmosphere with 5% CO2, after which the wells were washed to remove non-adherent cells. After 24 hours of incubation, 20 μl of the supernatant was removed and 20 μl of solutions of test compounds were added 30 min before E. coli O127:B8 LPS (100 ng/ml final concentration). Experiments were run in 3 independent replicates.
(§2) The activity of lactate dehydrogenase (LDH) in a cell culture medium served as a marker of membrane permeability and cell death. Aliquotes of supernatants were taken after 24 h of inoculation with test compounds, mixed with 250 μl of […] NADH solution in 54 mM phosphate buffered saline (pH 7.5). Then, 25 μl of a 6.48 mM pyruvate solution was added to the mixture. The optical density was followed at a wavelength of 340 nm for 20 min. Conversion of optical density into cell viability was carried out according to a standard curve (DMSO-treated cells as 100% and 0.01% Triton X-100-treated cells as 0% viable cells).

[2] = target: T1, NHE-1 (Oryctolagus cuniculus, UniProt P23791); assay: NHE-1 inhibition assay on rabbit platelets (platelet shape change after acidification with sodium propionate, laser aggregometer); assay type: cell-based; conditions: 10 nM, rabbit platelet-rich plasma, decimal commas; read-out: NHE-1 inhibition at 10 nM, m ± SD, n = 6 (%)
T1 construct: endogenous in cells; host or cells: rabbit platelets in platelet-rich plasma (male rabbits)
Experimental: Evaluation of NHE-1 inhibition was carried out on rabbit platelets by the known method[39],[40]. The experiments were carried out on 15 male rabbits weighing 3.0-4.0 kg. Platelet-rich plasma (PRP) was obtained by centrifuging blood with 3.8% sodium citrate (1:10) at 1000 rpm for 12 min (Multi centrifuge CM 6M, Latvia). Platelet shapeshifting due to acidification was followed with a laser aggregometer BIOLA-220 LA (Russia). Test compounds (10 μl, 10 nM final concentration) were added to 200 μl of PRP 5 min in a cuvette before the addition of sodium propionate solution, incubated with constant stirring using a magnetic stirrer (800 rpm, 37 °C). To control samples for NHE-1 activation, a buffer solution containing sodium propionate was added to 200 μL of PRP (600 μL, 135 mM sodium propionate, 20 mM HEPES, 1 mM CaCI2, 1 mM MgCI2, 10 mM glucose; pH 6.7). The change in light transmission at pH 7.4, 37 °C was monitored in a Krebs solution (600 μL, 120 mM NaCl, 4.8 mM KCl, 1.2 mM KH2PO4, 2.5 mM MgSO4, 25 mM NaHCO3, 2.6 mM CaCl2, 5.4 mM glucose; pH 7.4). Test compounds were added to a final concentration of 10 nM to the cuvette into 200 μl of PRP 5 min before adding the sodium propionate solution, incubated with constant stirring using a magnetic stirrer (800 rpm, 37 °C). NHE-1 inhibitors zoniporide, rimeporide, amiloride were used as reference drugs. Assays were run in 6 independent series.

[3] = tested on: IL-6 secretion; assay: Interleukin-6 secretion (ELISA) from LPS-stimulated peritoneal macrophages; assay type: cell-based, mice; conditions: male, C57BL/6J, mouse, primary peritoneal macrophages stimulated with LPS; CC50 versus IC50 of IL-6 secretion; read-out: selectivity of IL-6 inhibition over cytotoxicity
Experimental: as §1
(§3) Cell supernatant was collected and centrifuged at 1000 g for 20 min in a 2-16PK Sigma centrifuge (Germany). The concentration of IL-6 was determined by ELISA using a commercial kit (Cloud-clone ELISA kit) with a microplate reader Infinite M200 PRO (Tecan, Austria).

[4] = tested on: primary peritoneal macrophages of C57BL/6J mice; assay: as above; assay type: cell-based
Experimental: as §1, §3

[5] = tested on: ICR mice; assay: Tail suspension test (antidepressant activity); assay type: in vivo; conditions: intragastrically 30 min before test, dose equimolar to 2.6 mg/kg amiloride
Experimental: The experiment was carried out on 36 male ICR mice weighing 22-25 g, divided into groups of 6 animals each under room lighting (300 lux). […] In experiments, test substances were administered intragastrically 30 min before the start of the test. Experimental groups received test compounds in an equimolar dose to the comparison drug amiloride. Animals of the remaining groups were treated with 2.6 mg/kg amiloride, 10 mg/kg amitriptyline, or 8 mg/kg imipramine. Distilled water was administered to the control group. The time of immobilization of the animals was recorded.

[6] = tested on: rabbit platelets; assay: ADP-induced platelet aggregation assay in rabbit platelet-rich plasma; assay type: cell-based; conditions: 100 μM, ADP 5 μM
Experimental: Functional activity of platelets was determined on a two-channel laser analyzer of platelet aggregation "BIOLA-220 LA" (Russia) as described previously. The experiments were carried out on 6 male rabbits weighing 3.5–4 kg. To prepare platelet-rich plasma (PRP) venous blood was taken from the ear marginal vein of a rabbit, stabilized with a 3.8% sodium citrate solution in a ratio of 9:1 and centrifuged for 10 min at 1500 rpm. PRP (300 μL) and a solution of the test compound at a concentration of 100 μM were sequentially introduced into the cell of the aggregometer. The samples were incubated in thermostated cells of the aggregometer at 37 °C for 5 min. To induce aggregation adenosine-5-diphosphoric acid (ADP, Sigma, USA) at a final concentration of 5 μM, was added to the cuvette. Acetylsalicylic acid (Shandong Xinhua Pharmaceutical Co., Ltd., China) was used as a reference drug. Experiments were run in 5 independent replicates.

[7] = tested on: primary peritoneal macrophages of C57BL/6J mice; assay: Cytotoxicity study (LDH activity in the medium) in peritoneal macrophages; assay type: cell-based; conditions: 100 μM, peritoneal macrophages
Experimental: as §1, §2

[8] = tested on: primary peritoneal macrophages of C57BL/6J mice; assay: Nitric oxide synthesis (nitrite, Griess reagent) in LPS-stimulated peritoneal macrophages; assay type: cell-based; conditions: 100 μM
Experimental: as §1
The accumulation of nitrite anion (a stable end product of NO decomposition produced by iNOS) in supernatants was determined using a standard Griess reagent. Briefly, 50 μl of supernatants collected 22 hours after incubation of PM with test and control compounds were mixed with 50 μl of 1% sulfonamide in 2.5% H3PO4 and 50 μl of 0.1% N-(1-naphthyl) ethylenediamine in 2,5% H3PO4. After incubation at 23 °C for 10 min in an orbital shaker, the optical density was determined at a wavelength of 550 nm with a microplate reader Infinite M200 PRO (Tecan, Austria).

[9] = tested on: advanced glycation products from bovine serum albumin and glucose; assay: Antiglycating activity (AGE fluorescence, bovine serum albumin and glucose); assay type: biochemical; conditions: BSA 1 mg/ml, glucose 0.36 M, 60 °C, 24 hrs; read-out: IC50 of formation of advanced glycation products
Experimental: The glycation reaction was modeled using 1 mg/ml bovine serum albumin (Chemmed, Russia) and 0.36 M glucose (Vekton, Russia) in 50 mM phosphate buffer solution (PBS, pH 7.4) at 60 °C. After 24 hrs, albumin was precipitated using trichloroacetic acid (10% final concentration) and centrifugation (15 000 rpm, 4 min). The supernatant was removed by aspiration, and the residue was dissolved in 50 mM PBS (pH 10.5). Aliquots of 300 µl were transferred to a black flat-bottom 96-well microplate. AGE fluorescence was registered using Infinite M200 Pro (Tecan, Austria) microplate reader at excitation/emission wavelengths of 370/440 nm. Signals were normalized using blank samples containing BSA and the test compound in the appropriate concentration without the glucose. When normalized, the activity is expressed as the AGE fluorescence coefficient, determined by the formula: Flu=10^log10A-log10B-1, where A and B correspond to the absolute fluorescence values of the glucose-containing and mean glucose-free sample.
Activity percentage was calculated using the formula: A%=1-FluSample/FluControl×100%, where Flu(Sample) and Flu(Control) correspond to the normalized fluorescence coefficients of experimental and control samples. Experiments were run in 5 independent replicates.

T1 sequence (P23791 whole entry): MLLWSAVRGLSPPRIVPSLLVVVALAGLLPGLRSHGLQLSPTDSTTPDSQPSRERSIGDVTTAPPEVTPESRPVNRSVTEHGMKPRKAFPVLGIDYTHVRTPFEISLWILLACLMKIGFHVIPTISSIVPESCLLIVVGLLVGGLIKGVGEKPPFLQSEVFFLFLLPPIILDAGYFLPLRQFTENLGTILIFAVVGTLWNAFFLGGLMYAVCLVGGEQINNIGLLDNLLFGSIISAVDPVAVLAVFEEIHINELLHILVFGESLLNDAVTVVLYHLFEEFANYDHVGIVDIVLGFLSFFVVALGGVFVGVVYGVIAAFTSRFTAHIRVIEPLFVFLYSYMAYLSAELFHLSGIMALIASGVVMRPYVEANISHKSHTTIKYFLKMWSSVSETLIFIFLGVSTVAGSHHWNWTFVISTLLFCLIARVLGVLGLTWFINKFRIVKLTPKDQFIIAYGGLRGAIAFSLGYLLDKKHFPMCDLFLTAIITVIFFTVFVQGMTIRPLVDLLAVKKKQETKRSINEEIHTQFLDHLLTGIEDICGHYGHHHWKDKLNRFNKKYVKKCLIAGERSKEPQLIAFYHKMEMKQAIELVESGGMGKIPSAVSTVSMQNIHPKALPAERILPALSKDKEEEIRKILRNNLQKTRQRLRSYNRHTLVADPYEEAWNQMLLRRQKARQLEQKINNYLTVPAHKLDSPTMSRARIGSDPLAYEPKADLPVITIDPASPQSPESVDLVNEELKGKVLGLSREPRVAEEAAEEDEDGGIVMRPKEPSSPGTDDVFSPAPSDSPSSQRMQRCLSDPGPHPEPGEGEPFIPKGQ

Row | Structure (SMILES) | CC50 at 24 h [1] [µM] | inhibition at 0.01 µM [2] [%] | melting point [°C] | selectivity ratio [3] | secretion of interleukin 6 ([4]; LPS-stimulated macrophages, screening (Fig. 4)) | IC50 ([4]; Mus musculus, Peritoneal macrophage, LPS-stimulated murine macrophages, read-out: IC50 of IL-6 synthesis/secretion) [µM] | antidepressant activity [5] | antiplatelet activity versus acetylsalicylic acid [6] | effect on cell viability [7] | inhibition of the synthesis of nitric oxide [8] | IC50 [9] [mM]
1 | Nc1nnc(Cn2c(=O)c3ccccc3n(Cc3ccccc3)c2=O)[nH]1 [Compound 3i, 3-[(5-Amino-4H-1,2,4-triazol-3-yl)methyl]-1-benzylquinazoline-2,4(1H,3H)-dione] | 146 | 12.9 | 262 to 265 | 4 to 6 | suppressed | 24.1 | antidepressant activity similar to amiloride; also recorded: antidepressant activity comparable with amiloride |  |  |  | 
2 | Nc1nc(Cn2cnc3ccc(Br)cc3c2=O)n[nH]1 [Compound 6b, 3-[(5-Amino-1H-1,2,4-triazol-3-yl)methyl]-6-bromoquinazolin-4(3H)-one] |  | 25.8 |  |  |  |  |  | exceeded the activity of the reference drug, acetylsalicylic acid | absence of a statistically significant effect on cell viability | statistically significantly inhibit | 0.506
3 | N=C(N)NN [aminoguanidine, reference compound] |  |  |  |  |  |  |  |  |  |  | 4.52
